According to patent US8202507B2, “Assay for vitamin B12 absorption and method of making labeled vitamin B12” (The Regents of the University of California, priority 2004, dated 2012):

How the values were obtained:
[1] = cited from earlier work
[2] = AMS assay of B12 absorption in a normal human subject after oral ^14C-vitamin B12; format: in vivo; details: for total of oral dose recovered in urine and feces: seven days post-dose, cumulative urine and stool; for delay in the appearance of the label in plasma: plasma by AMS
Experimental: This example describes the use of this labeled B12 and AMS to assay B12 absorption in a normal human subject. A single 1.5 μg dose of the ^14C-vitamin B12 was administered orally and detected by AMS as it appeared in the bloodstream.
The subject was a healthy person with a body mass index (BMI) of 27.5. The subject began complete fecal and urine collection 24 h in advance of the dose and continued complete 24 h collections until Day 7. On the day of dose administration, the subject was fitted with an intravenous catheter in a forearm vein. Blood was drawn into 7 mL tubes containing EDTA. A baseline blood sample was drawn (7 AM) and the dose consumed that corresponded to 2.2 KBq of radioactivity (1.5 μg) was administered in 50 mL of drinking water in a paper cup. The volunteer was allowed to have water ad libitum thereafter, with a light meal taken 2 hr postdose. Blood samples were drawn at frequent intervals for the first 15 hr post-dose and daily thereafter. Meals were controlled for time and content on the dose administration day.
AMS analysis. Aliquots of plasma (30 μL), urine (80 μL) and a stool slurry (80 μL) were dried, combusted to CO2, and reduced to filamentous carbon using known procedures. No other processing preceded the graphization step, thus quantitative recovery was ensured. The ^14C measurements were performed at the Center for Accelerator Mass Spectrometry at Lawrence Livermore National Laboratory. Measurements were conducted to <3% instrument imprecision and, in general, signal acquisition was complete to the desired statistical precision in 3-5 min per sample. The radiation exposure of the subject, due to the ^14C-B12 dose, was equivalent or less than exposure due to 10 hours of intercontinental plane flight.

Substance	solubility in water ([1]; 25° C.)	solubility in acetone, chloroform and ether [1]	solubility in alcohol and phenol [1]	total of oral dose recovered in urine and feces [2]	total of oral dose recovered in urine and feces ([2]; listed as 14C)	share of the quantified output accounted for ([2]; seventy-two hours post-dose, urine and feces)	delay in the appearance of the label in plasma ([2]; single 1.5 μg oral dose)	delay in the appearance of the label in plasma ([2]; single 1.5 μg oral dose, listed as 14C from the labeled vitamin B12)	peak circulating ^14C-B12 as percent of the administered dose ([2]; single 1.5 μg oral dose, plasma, at peak after seven hours)	label in the twenty-four hour urine collection ([2]; single 1.5 μg oral dose, urine, no flushing dose)
Cyanocobalamin	1.2%	insoluble	soluble							
^14C-cyanocobalamin [^14C-vitamin B12]				15.8%	15.9%	99%	two to three	three	less than three	6.8 % of administered dose
